The text below walks through data of ChEMBL document CHEMBL1201862, “PubChem BioAssay data set” (2004).

Molecules are shown by their SMILES.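 Tested at 5 concentrations; 48 h exposure; 96-well plates; endpoints linearly interpolated, else capped at highest concentration. GI50: concentration for 50% inhibition of growth.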 The source made the active and inactive calls. No stated cut-off is given here; in the data, active = GI50 up to about 1.1 µM and inactive = higher.

Test systems include NCI-H23; HCT-116; SR; HCC 2998; OVCAR-3; SK-MEL-5; OVCAR-8; TK-10; KM12; SF-539; HL-60; NCI-H522; SK-MEL-28; UO-31; OVCAR-4; SK-MEL-2; NCI-H460; K562; A549; SF-268.
Common to all, as to assay: NCI-60 cell line screen, 48 h

Regarding `C#Cc1ccccc1C(=O)OC`, the GI50 with NCI-H23, in the assay on HCT-116, with SR, with HCC 2998, in the assay with OVCAR-3 and in the assay on SK-MEL-5 was > 100 µM (inactive) each time. The GI50 in the assay on OVCAR-8 is > 100 µM (inactive); with TK-10, > 100 µM (inactive); in the assay with KM12 it was > 100 µM (inactive); in the assay with SF-539, > 100 µM (inactive); in the assay with HL-60, > 100 µM (inactive); in the assay with NCI-H522 it was 35.9 µM (inactive). The GI50 in the assay on SK-MEL-28, in the assay with UO-31, in the assay with OVCAR-4, in the assay on SK-MEL-2, in the assay on NCI-H460 and in the assay with K562 was > 100 µM (inactive) in each case. The GI50 with A549 was > 100 µM (inactive).
On to `CSc1nc2c(ncn2C2OC(CO)C(O)C(O)C2O)c(=O)n1C` (centres undefined), for which the GI50 with NCI-H23, in the assay with HCT-116, in the assay with HCC 2998, in the assay on OVCAR-3, in the assay with SK-MEL-5 and in the assay on OVCAR-8 was > 100 µM (inactive) throughout. Besides, the GI50 with KM12, in the assay with SF-539, in the assay with SF-268, in the assay on HL-60, in the assay with NCI-H522 and in the assay with SK-MEL-28 was > 100 µM (inactive) throughout. Further, the GI50 with UO-31, with OVCAR-4, in the assay on SK-MEL-2, in the assay with NCI-H460, in the assay with K562 and with A549 was > 100 µM (inactive) each time.
Regarding `Cc1nn(C(=O)Cc2ccccc2)c2c1C(c1ccc3ccccc3c1O)SC(=N)N2` (centres undefined), the GI50 with NCI-H23 was > 100 µM (inactive); in the assay with HCT-116, > 100 µM (inactive); in the assay on SR, 48.9 µM (inactive); with HCC 2998, > 100 µM (inactive); with SK-MEL-5, > 100 µM (inactive); with OVCAR-8, > 100 µM (inactive). The GI50 in the assay with TK-10 was > 100 µM (inactive); in the assay with KM12, > 100 µM (inactive); with SF-539 it was > 100 µM (inactive); in the assay with SF-268, > 100 µM (inactive); in the assay with HL-60, 39.6 µM (inactive); with NCI-H522, 67.8 µM (inactive). The GI50 is > 100 µM (inactive) in the assay with SK-MEL-28; 80 µM (inactive) in the assay on UO-31; > 100 µM (inactive) with NCI-H460; > 100 µM (inactive) with K562; > 100 µM (inactive) in the assay on A549.
For the molecule `[O-]c1c2c(nn1-c1ccc(F)cc1)c1ccccc1c[n+]2Cc1ccccc1`, the GI50 was 16.3 µM (inactive) with NCI-H23; 16.4 µM (inactive) with HCT-116; 1.55 µM (inactive) in the assay on SR; 11.7 µM (inactive) in the assay with HCC 2998; 7.69 µM (inactive) in the assay on OVCAR-3; 3.96 µM (inactive) in the assay on SK-MEL-5. Moreover, the GI50 is 12.8 µM (inactive) in the assay on OVCAR-8; 24.6 µM (inactive) in the assay with TK-10; 1.43 µM (inactive) in the assay on KM12; 3.26 µM (inactive) in the assay with SF-539; 18.9 µM (inactive) in the assay with SF-268; 0.327 µM (active) in the assay on HL-60. In addition, the GI50 is 4.12 µM (inactive) in the assay with NCI-H522; 15.3 µM (inactive) with SK-MEL-28; 10.2 µM (inactive) in the assay on UO-31; 19.3 µM (inactive) in the assay with OVCAR-4; 0.501 µM (active) in the assay on SK-MEL-2; 10.5 µM (inactive) in the assay on NCI-H460. The values for the GI50 in the assay with K562 and in the assay on A549 were 0.687 µM (active) and 12.8 µM (inactive), respectively.
